Laboratory results published in ChEMBL document CHEMBL3621195, “Analogues of the marine alkaloids oroidin, clathrodin, and hymenidin induce apoptosis in human HepG2 and THP-1 cancer cells” (Medchemcomm, 2015).

Legend:
[1] = system: HepG2; experiment: Induction of apoptosis in human HepG2 cells at 50 uM incubated for 24 hrs by Annexin V-FITC and propidium iodide staining based microcapillary flow cytometry; assay type: functional
[2] = system: HepG2; experiment: Induction of apoptosis in human HepG2 cells incubated for 24 hrs by Annexin V-FITC and propidium iodide staining based microcapillary flow cytometry; assay type: functional, cell-based; details: HepG2, 24 h
[3] = system: THP-1; experiment: Induction of apoptosis in human THP1 cells incubated for 24 hrs by Annexin V-FITC and propidium iodide staining based microcapillary flow cytometry; assay type: functional, cell-based; details: THP-1, 24 h
[4] = system: THP-1; experiment: Induction of apoptosis in human THP1 cells at 50 uM incubated for 24 hrs by Annexin V-FITC and propidium iodide staining based microcapillary flow cytometry; assay type: functional
[5] = system: THP-1; experiment: Induction of cell cycle arrest in human THP1 cells assessed accumulation at subG1 phase at 25 uM incubated for 24 hrs by propidium iodide staining based microcapillary flow cytometry (reference value: 2 +/- 1%); assay type: functional
[6] = system: THP-1; experiment: Induction of cell cycle arrest in human THP1 cells assessed accumulation at subG1 phase at 25 uM incubated for 48 hrs by propidium iodide staining based microcapillary flow cytometry (reference value: 2 +/- 1%); assay type: functional

## CNc1nc(-c2cccc(NC(=O)c3cc4ccccc4[nH]3)c2)c[nH]1.Cl
[1]
  Activity: 91%
[2]
  EC50: 20 µM
[3]
  EC50: 24 µM
[4]
  Activity: 87%
[5]
  Activity: 18%
[6]
  Activity: 49%

## Cl.Nc1nc(-c2cccc(NC(=O)c3cc4cc(Cl)ccc4[nH]3)c2)c[nH]1
[1]
  Activity: 93%
[2]
  EC50: 16 µM
[3]
  EC50: 24 µM
[4]
  Activity: 87%
[5]
  Activity: 26%
[6]
  Activity: 40%
